{
  "source": "patent US20260297070A1",
  "about": "“CYCLIC [COMPOUND LEFT OUT] WRN INHIBITORS” (Nimbus Wadjet, Inc., priority 2023, published 2026)",
  "data": [
    {"target": "T1, human Werner helicase (WRN-BV08, Uniprot Q14191, amino acids 517-1235 with L1074F point mutation) (Homo sapiens, UniProt Q14191, L1074F)", "T1 construct": "Uniprot Q14191, amino acids 517-1235 with L1074F point mutation; TEV-cleavable 8×His (C, cleaved yes); made in house; host or cells: Sf9 insect cells (baculovirus)", "T1 sequence (Q14191 with tags, fused parts or gaps L1074F limits assumed)": "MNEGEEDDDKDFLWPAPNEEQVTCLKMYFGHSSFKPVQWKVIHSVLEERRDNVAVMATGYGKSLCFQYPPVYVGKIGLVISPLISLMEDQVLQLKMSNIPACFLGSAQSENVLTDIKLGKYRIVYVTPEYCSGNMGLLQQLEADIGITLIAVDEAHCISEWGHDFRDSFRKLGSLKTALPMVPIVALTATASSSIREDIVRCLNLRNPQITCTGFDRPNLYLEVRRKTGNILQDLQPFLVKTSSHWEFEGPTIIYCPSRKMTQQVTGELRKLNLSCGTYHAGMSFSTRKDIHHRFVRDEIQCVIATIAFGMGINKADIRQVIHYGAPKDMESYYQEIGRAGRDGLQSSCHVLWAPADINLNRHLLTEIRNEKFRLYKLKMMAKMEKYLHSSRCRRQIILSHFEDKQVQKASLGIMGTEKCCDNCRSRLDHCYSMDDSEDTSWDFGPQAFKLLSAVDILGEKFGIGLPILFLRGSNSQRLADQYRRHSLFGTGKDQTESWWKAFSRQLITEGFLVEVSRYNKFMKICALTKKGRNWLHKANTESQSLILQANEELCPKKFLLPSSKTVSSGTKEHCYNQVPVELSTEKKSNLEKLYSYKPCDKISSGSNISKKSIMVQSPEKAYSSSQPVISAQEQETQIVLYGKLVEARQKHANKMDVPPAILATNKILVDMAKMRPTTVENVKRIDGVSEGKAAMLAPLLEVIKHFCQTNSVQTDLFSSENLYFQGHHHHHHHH", "assay": "WRN (BV08) ADP-Glo Assay", "format": "biochemical", "details": "0.15 nM WRN, 5 μM ATP, 0.1 nM DNA duplex, 15 min preincubation, 60 min at 25° C., pH 7.5, 1% DMSO; read-out: ADP-Glo_hWRN_IC50", "outline": "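Untagged WRN (Sf9-expressed, TEV-cleaved) at 0.15 nM was preincubated 15 min at 25 °C with compound, then reacted 60 min at 25 °C with 5 μM ATP and 0.1 nM DNA duplex in Bicine pH 7.5, 1 mM MgCl2. ADP-Glo luminescence gave % inhibition; IC50 by four-parameter fit.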", "units": {"IC50": "µM"}, "values": [
      {"smiles": "N#Cc1cccc(CN(C(=O)Cc2ccc(-n3cccc3)cc2)C2C=CS(=O)(=O)C2)c1", "note": "(centres unmarked) [I-286, N-[(3-cyanophenyl)methyl]-N-(1,1-dioxo-2,3-dihydro-1lambda6-thiophen-3-yl)-2-[4-(1H-pyrrol-1-yl)phenyl]acetamide]", "IC50": "10 to 50"},
      {"smiles": "O=C(Cc1ccc(C2CC2)cc1)N(Cc1ccncc1)C1C=CS(=O)(=O)C1", "note": "(centres unmarked) [I-287, 2-(4-cyclopropylphenyl)-N-(1,1-dioxo-2,3-dihydro-1lambda6-thiophen-3-yl)-N-[(pyridin-4-yl)methyl]acetamide]", "IC50": "5 to 10"},
      {"smiles": "Cc1cccc(-c2ccc(CC(=O)N(Cc3ccncc3)C3C=CS(=O)(=O)C3)cc2)c1", "note": "(centres unmarked) [I-288, N-(1,1-dioxo-2,3-dihydro-1lambda6-thiophen-3-yl)-2-{3′-methyl-[1,1′-biphenyl]-4-yl}-N-[(pyridin-4-yl)methyl]acetamide]", "IC50": "10 to 50"},
      {"smiles": "O=C(Cc1cc(-c2ccccc2)n[nH]1)N(Cc1ccncc1)C1C=CS(=O)(=O)C1", "note": "(centres unmarked) [I-289, N-(1,1-dioxo-2,3-dihydro-1lambda6-thiophen-3-yl)-2-(3-phenyl-1H-pyrazol-5-yl)-N-[(pyridin-4-yl)methyl]acetamide]", "IC50": "10 to 50"},
      {"smiles": "O=C(Cc1ccc(-n2cccc2)cc1)N(Cc1ccccc1)C1C=CS(=O)(=O)C1", "note": "(centres unmarked) [I-290, N-benzyl-N-(1,1-dioxo-2,3-dihydro-1lambda6-thiophen-3-yl)-2-[4-(1H-pyrrol-1-yl)phenyl]acetamide]", "IC50": "5 to 10"},
      {"smiles": "O=C(Cn1ncc(-c2ccccc2)n1)N(Cc1ccncc1)C1C=CS(=O)(=O)C1", "note": "(centres unmarked) [I-291, N-(1,1-dioxo-2,3-dihydro-1lambda6-thiophen-3-yl)-2-(4-phenyl-2H-1,2,3-triazol-2-yl)-N-[(pyridin-4-yl)methyl]acetamide]", "IC50": "10 to 50"},
      {"smiles": "O=C(Cc1ccc(-n2cccc2)cc1)N(Cc1cccc(O)c1)C1C=CS(=O)(=O)C1", "note": "(centres unmarked) [I-292, N-(1,1-dioxo-2,3-dihydro-1lambda6-thiophen-3-yl)-N-[(3-hydroxyphenyl)methyl]-2-[4-(1H-pyrrol-1-yl)phenyl]acetamide]", "IC50": "10 to 50"},
      {"smiles": "O=C(Cc1ccc(C(F)(F)F)cc1Br)N(Cc1ccncc1)C1C=CS(=O)(=O)C1", "note": "(centres unmarked) [I-293, 2-[2-bromo-4-(trifluoromethyl)phenyl]-N-(1,1-dioxo-2,3-dihydro-1lambda6-thiophen-3-yl)-N-[(pyridin-4-yl)methyl]acetamide]", "IC50": "10 to 50"},
      {"smiles": "O=C(Cc1ccc(-n2cccc2)cc1)N(Cc1c(F)cccc1F)C1C=CS(=O)(=O)C1", "note": "(centres unmarked) [I-294, N-[(2,6-difluorophenyl)methyl]-N-(1,1-dioxo-2,3-dihydro-1lambda6-thiophen-3-yl)-2-[4-(1H-pyrrol-1-yl)phenyl]acetamide]", "IC50": "10 to 50"},
      {"smiles": "O=C(Cc1ccc(-n2cccc2)cc1)N(Cc1ccc(C(F)(F)F)nc1)C1C=CS(=O)(=O)C1", "note": "(centres unmarked) [I-295, N-(1,1-dioxo-2,3-dihydro-1lambda6-thiophen-3-yl)-2-[4-(1H-pyrrol-1-yl)phenyl]-N-{[6-(trifluoromethyl)pyridin-3-yl]methyl}acetamide]", "IC50": "10 to 50"},
      {"smiles": "O=C(Cc1ccc(-n2cccc2)cc1)N(Cc1cnc2ccccc2c1)C1C=CS(=O)(=O)C1", "note": "(centres unmarked) [I-296, N-(1,1-dioxo-2,3-dihydro-1lambda6-thiophen-3-yl)-2-[4-(1H-pyrrol-1-yl)phenyl]-N-[(quinolin-3-yl)methyl]acetamide]", "IC50": "10 to 50"},
      {"smiles": "O=C(Cc1ccc(-n2cccc2)cc1)N(Cc1ccnc(-c2ccccc2)c1)C1C=CS(=O)(=O)C1", "note": "(centres unmarked) [I-297, N-(1,1-dioxo-2,3-dihydro-1lambda6-thiophen-3-yl)-N-[(2-phenylpyridin-4-yl)methyl]-2-[4-(1H-pyrrol-1-yl)phenyl]acetamide]", "IC50": "0.5 to 5"},
      {"smiles": "CC(C)(O)c1cc(CN(C(=O)C2Cc3cc(-c4ccc(F)cc4)ccc3O2)C2C=CS(=O)(=O)C2)ccn1", "note": "(centres unmarked) [I-298, N-(1,1-dioxo-2,3-dihydro-1lambda6-thiophen-3-yl)-5-(4-fluorophenyl)-N-{[2-(2-hydroxypropan-2-yl)pyridin-4-yl]methyl}-2,3-dihydro-1-benzofuran-2-carboxamide]", "IC50": "10 to 50"},
      {"smiles": "O=C(Cc1ccc(C(F)(F)F)c(Cl)c1)N(Cc1ccncc1)C1C=CS(=O)(=O)C1", "note": "(centres unmarked) [I-299, 2-[3-chloro-4-(trifluoromethyl)phenyl]-N-(1,1-dioxo-2,3-dihydro-1lambda6-thiophen-3-yl)-N-[(pyridin-4-yl)methyl]acetamide]", "IC50": "10 to 50"},
      {"smiles": "O=C(Cc1ncc(-c2ccccc2)s1)N(Cc1ccncc1)C1C=CS(=O)(=O)C1", "note": "(centres unmarked) [I-300, N-(1,1-dioxo-2,3-dihydro-1lambda6-thiophen-3-yl)-2-(5-phenyl-1,3-thiazol-2-yl)-N-[(pyridin-4-yl)methyl]acetamide]", "IC50": "10 to 50"},
      {"smiles": "O=C(Cc1cc2ccccc2s1)N(Cc1ccncc1)C1C=CS(=O)(=O)C1", "note": "(centres unmarked) [I-301, 2-(1-benzothiophen-2-yl)-N-(1,1-dioxo-2,3-dihydro-1lambda6-thiophen-3-yl)-N-[(pyridin-4-yl)methyl]acetamide]", "IC50": "10 to 50"},
      {"smiles": "CC(=O)Nc1ccc(CN(C(=O)Cc2ccc(-n3cccc3)cc2)C2C=CS(=O)(=O)C2)cc1", "note": "(centres unmarked) [I-302, N-(1,1-dioxo-2,3-dihydro-1lambda6-thiophen-3-yl)-N-[(4-acetamidophenyl)methyl]-2-[4-(1H-pyrrol-1-yl)phenyl]acetamide]", "IC50": "10 to 50"},
      {"smiles": "O=C(Cc1ccc(-n2cccc2)cc1)N(Cc1ccc(O)cc1)C1C=CS(=O)(=O)C1", "note": "(centres unmarked) [I-303, N-(1,1-dioxo-2,3-dihydro-1lambda6-thiophen-3-yl)-N-[(4-hydroxyphenyl)methyl]-2-[4-(1H-pyrrol-1-yl)phenyl]acetamide]", "IC50": "10 to 50"},
      {"smiles": "O=C(CCc1c[nH]c2cc(Br)ccc12)N(Cc1ccncc1)C1C=CS(=O)(=O)C1", "note": "(centres unmarked) [I-304, 3-(6-bromo-1H-indol-3-yl)-N-(1,1-dioxo-2,3-dihydro-1lambda6-thiophen-3-yl)-N-[(pyridin-4-yl)methyl]propanamide]", "IC50": "10 to 50"},
      {"smiles": "O=C(Cc1ccc(-n2ccc3ccccc32)cc1)N(Cc1ccncc1)C1C=CS(=O)(=O)C1", "note": "(centres unmarked) [I-305, N-(1,1-dioxo-2,3-dihydro-1lambda6-thiophen-3-yl)-2-[4-(1H-indol-1-yl)phenyl]-N-[(pyridin-4-yl)methyl]acetamide]", "IC50": "10 to 50"},
      {"smiles": "O=C(CCc1c[nH]c2cc(Cl)ccc12)N(Cc1ccncc1)C1C=CS(=O)(=O)C1", "note": "(centres unmarked) [I-306, 3-(6-chloro-1H-indol-3-yl)-N-(1,1-dioxo-2,3-dihydro-1lambda6-thiophen-3-yl)-N-[(pyridin-4-yl)methyl]propanamide]", "IC50": "10 to 50"},
      {"smiles": "CN(C)C(C(=O)N(Cc1ccnc(C(C)(C)O)c1)C1C=CS(=O)(=O)C1)c1ccc(-c2ccc(F)c(F)c2)cc1F", "note": "(centres unmarked) [I-307, 2-(dimethylamino)-N-(1,1-dioxo-2,3-dihydro-1lambda6-thiophen-3-yl)-N-{[2-(2-hydroxypropan-2-yl)pyridin-4-yl]methyl}-2-{3,3′,4′-trifluoro-[1,1′-biphenyl]-4-yl}acetamide]", "IC50": "10 to 50"},
      {"smiles": "CCc1ccc(CC(=O)N(Cc2ccncc2)C2C=CS(=O)(=O)C2)cc1", "note": "(centres unmarked) [I-308, N-(1,1-dioxo-2,3-dihydro-1lambda6-thiophen-3-yl)-2-(4-ethylphenyl)-N-[(pyridin-4-yl)methyl]acetamide]", "IC50": "10 to 50"},
      {"smiles": "CC(C)(C)c1ccc(CC(=O)N(Cc2ccncc2)C2C=CS(=O)(=O)C2)cc1", "note": "(centres unmarked) [I-310, 2-(4-tert-butylphenyl)-N-(1,1-dioxo-2,3-dihydro-1lambda6-thiophen-3-yl)-N-[(pyridin-4-yl)methyl]acetamide]", "IC50": "10 to 50"},
      {"smiles": "COc1cc(CN(C(=O)Cc2ccc(S(F)(F)(F)(F)F)cc2)[C@H]2C=CS(=O)(=O)C2)ccn1", "note": "[I-311, N-[(3S)-1,1-dioxo-2,3-dihydro-1lambda6-thiophen-3-yl]-N-[(2-methoxypyridin-4-yl)methyl]-2-[4-(pentafluoro-lambda6-sulfanyl)phenyl]acetamide]", "IC50": "> 50"},
      {"smiles": "Cc1cnccc1CN(C(=O)Cc1ccc(-n2cccc2)cc1)C1C=CS(=O)(=O)C1", "note": "(centres unmarked) [I-313, N-(1,1-dioxo-2,3-dihydro-1lambda6-thiophen-3-yl)-N-[(3-methylpyridin-4-yl)methyl]-2-[4-(1H-pyrrol-1-yl)phenyl]acetamide]", "IC50": "10 to 50"},
      {"smiles": "O=C(Cc1ccc(-n2cccc2)cc1)N(Cc1cccc(B(O)O)c1)C1C=CS(=O)(=O)C1", "note": "(centres unmarked) [I-314, (3-{[N-(1,1-dioxo-2,3-dihydro-1lambda6-thiophen-3-yl)-2-[4-(1H-pyrrol-1-yl)phenyl]acetamido]methyl}phenyl)boronic acid]", "IC50": "10 to 50"},
      {"smiles": "O=C(Cc1ccc2ccccc2c1)N(Cc1ccncc1)C1C=CS(=O)(=O)C1", "note": "(centres unmarked) [I-315, N-(1,1-dioxo-2,3-dihydro-1lambda6-thiophen-3-yl)-2-(naphthalen-2-yl)-N-[(pyridin-4-yl)methyl]acetamide]", "IC50": "10 to 50"},
      {"smiles": "O=C(Cc1ccc(-n2cccc2)cc1)N(Cc1cccc2nccnc12)C1C=CS(=O)(=O)C1", "note": "(centres unmarked) [I-316, N-(1,1-dioxo-2,3-dihydro-1lambda6-thiophen-3-yl)-2-[4-(1H-pyrrol-1-yl)phenyl]-N-[(quinoxalin-5-yl)methyl]acetamide]", "IC50": "10 to 50"},
      {"smiles": "O=C(Cc1ccc(C(F)F)cc1)N(Cc1ccncc1)C1C=CS(=O)(=O)C1", "note": "(centres unmarked) [I-317, 2-[4-(difluoromethyl)phenyl]-N-(1,1-dioxo-2,3-dihydro-1lambda6-thiophen-3-yl)-N-[(pyridin-4-yl)methyl]acetamide]", "IC50": "10 to 50"},
      {"smiles": "NC(=O)c1cccc(CN(C(=O)Cc2ccc(-n3cccc3)cc2)C2C=CS(=O)(=O)C2)c1", "note": "(centres unmarked) [I-318, 3-{[N-(1,1-dioxo-2,3-dihydro-1lambda6-thiophen-3-yl)-2-[4-(1H-pyrrol-1-yl)phenyl]acetamido]methyl}benzamide]", "IC50": "10 to 50"},
      {"smiles": "O=C(Cc1ccc(-n2cccc2)cn1)N(Cc1ccncc1)C1C=CS(=O)(=O)C1", "note": "(centres unmarked) [I-319, N-(1,1-dioxo-2,3-dihydro-1lambda6-thiophen-3-yl)-N-[(pyridin-4-yl)methyl]-2-[5-(1H-pyrrol-1-yl)pyridin-2-yl]acetamide]", "IC50": "10 to 50"}
    ]}
  ]
}
